Measurements reported in the supplement of paper PMC10307832.

Experiments:
Test in all cases: relative viability (nuclei count vs DMSO), 5 days (fraction); higher = more cells survive
[1] = system: NCI-H2023
In short: (§1)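 Lung cancer cell lines were pin-tool dosed in 1536-well plates on the day after seeding, with either a lone drug or a fixed anchor-drug dose plus five library-drug doses (not always all listed) in √10 steps. Nuclei were counted on 4× images after 5 days. Relative viability is the ratio of treated-well to vehicle-well nuclei counts, with each value a median of duplicate plates.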

[2] = system: UMC-11
In short: as §1

[3] = system: NCI-H1734
In short: as §1

[4] = system: HCC-78
In short: as §1

[5] = system: RERF-LC-KJ
In short: as §1

[6] = system: NCI-H1793
In short: as §1

[7] = system: NCI-H1792
In short: as §1

[8] = system: NCI-H1395
In short: as §1

[9] = system: NCI-H23
In short: as §1

[10] = system: NCI-H1437
In short: as §1

[11] = system: NCI-H1915
In short: as §1

[12] = system: SK-LU-1
In short: as §1

Molecule `O=C(O)CCCCC(CCSCc1ccccc1)SCc1ccccc1` (stereo unspecified) [CPI-613] + CS(=O)(=O)N1CCN(Cc2cc3nc(-c4cccc5[nH]ncc45)nc(N4CCOCC4)c3s2)CC1 [Pictilisib] (partner 1 µM) has a relative viability ([1]; first compound 5 µM) of 0.233, a relative viability ([1]; first compound 15.81 µM) of 0.218 and a relative viability ([1]; first compound 50 µM) of 0.231. For the same molecule, the relative viability ([1]; first compound 158.11 µM) was 0.0548, the relative viability ([1]; first compound 500 µM) was 0.0183 and the relative viability ([2]; first compound 5 µM) was 0.804. It also gave a relative viability ([2]; first compound 15.81 µM) of 0.698, a relative viability ([2]; first compound 50 µM) of 0.496 and a relative viability ([2]; first compound 158.11 µM) of 0.642. For the same molecule, the relative viability ([2]; first compound 500 µM) was 0.104, the relative viability ([3]; first compound 5 µM) was 0.466 and the relative viability ([3]; first compound 15.81 µM) was 0.383. It also gave a relative viability ([3]; first compound 50 µM) of 0.434, a relative viability ([3]; first compound 158.11 µM) of 0.274 and a relative viability ([3]; first compound 500 µM) of 0.113. For the same molecule, the relative viability ([4]; first compound 5 µM) was 0.203, the relative viability ([4]; first compound 15.81 µM) was 0.167 and the relative viability ([4]; first compound 158.11 µM) was 0.156. The relative viability ([4]; first compound 500 µM) was 0.206, the relative viability ([5]; first compound 5 µM) was 0.455 and the relative viability ([5]; first compound 15.81 µM) was 0.496. The relative viability ([5]; first compound 50 µM) was 0.605, the relative viability ([5]; first compound 158.11 µM) was 0.558 and the relative viability ([5]; first compound 500 µM) was 0.438. For the same molecule, the relative viability ([6]; first compound 5 µM) was 0.248, the relative viability ([6]; first compound 50 µM) was 0.266 and the relative viability ([6]; first compound 158.11 µM) was 0.205. It also gave a relative viability ([6]; first compound 500 µM) of 0.0326, a relative viability ([7]; first compound 5 µM) of 0.29 and a relative viability ([7]; first compound 15.81 µM) of 0.229. It also gave a relative viability ([7]; first compound 50 µM) of 0.272, a relative viability ([7]; first compound 158.11 µM) of 0.23 and a relative viability ([7]; first compound 500 µM) of 0.207. It also gave a relative viability ([8]; first compound 5 µM) of 0.623, a relative viability ([8]; first compound 15.81 µM) of 0.782 and a relative viability ([8]; first compound 50 µM) of 0.619. The relative viability ([8]; first compound 158.11 µM) was 0.645, the relative viability ([8]; first compound 500 µM) was 0.51 and the relative viability ([9]; first compound 5 µM) was 0.478. It also gave a relative viability ([9]; first compound 15.81 µM) of 0.455, a relative viability ([9]; first compound 50 µM) of 0.457 and a relative viability ([9]; first compound 158.11 µM) of 0.153. It also gave a relative viability ([9]; first compound 500 µM) of 0.009, a relative viability ([10]; first compound 5 µM) of 0.433 and a relative viability ([10]; first compound 15.81 µM) of 0.286. The relative viability ([10]; first compound 50 µM) was 0.435, the relative viability ([10]; first compound 158.11 µM) was 0.181 and the relative viability ([10]; first compound 500 µM) was 0.0176. The relative viability ([11]; first compound 5 µM) was 0.988, the relative viability ([11]; first compound 15.81 µM) was 0.719 and the relative viability ([11]; first compound 50 µM) was 0.908. For the same molecule, the relative viability ([11]; first compound 158.11 µM) was 0.927, the relative viability ([11]; first compound 500 µM) was 0.503 and the relative viability ([12]; first compound 5 µM) was 0.533. For the same molecule, the relative viability ([12]; first compound 15.81 µM) was 0.428 and the relative viability ([12]; first compound 50 µM) was 0.49.
